According to patent US20090118274A1, “MONOCYCLIC AMINOPROPYL TETRAHYDRO-PYRAZOLO-PYRIDINE MODULATORS OF CATHEPSIN S” (priority 2007, published 2009):

The compounds below were run against T1, Recombinant human cathepsin S (CatS) (Homo sapiens, UniProt P25774) (assay: Recombinant human cathepsin S (CatS) fluorogenic substrate inhibition assay). Settings: not given.
T1 construct: made in house
Format: biochemical
Protocol: Recombinant human cathepsin S (CatS) was expressed in the baculovirus system and purified in one step with a thiopropyl-sepharose column. […] The assay is run in 150 mM sodium acetate pH 5.0 containing 1.5 mM DTT and 150 mM NaCl. […] Measurements are taken every min for 20 min. The rate is calculated from the slope of the increase in fluorescence and the percent inhibition is calculated from this.

T1 sequence (P25774 115-331): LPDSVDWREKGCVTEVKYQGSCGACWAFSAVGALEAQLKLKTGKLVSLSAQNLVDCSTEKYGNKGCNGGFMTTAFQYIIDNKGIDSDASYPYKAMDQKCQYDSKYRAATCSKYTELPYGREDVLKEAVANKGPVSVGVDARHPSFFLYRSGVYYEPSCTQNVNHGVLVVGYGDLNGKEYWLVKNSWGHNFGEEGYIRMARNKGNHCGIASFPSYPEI

Question: For CS(=O)(=O)N1CCc2c(c(-c3ccc(Cl)c(CNC(=O)c4ccc(F)cc4)c3)nn2CC(O)CN2CCC2)C1 (stereo not drawn) [Example 73, N-{5-[1-(3-Azetidin-1-yl-2-hydroxy-propyl)-5-methanesulfonyl-4,5,6,7-tetrahydro-1H-pyrazolo[4,3-c]pyridin-3-yl]-2-chloro-benzyl}-4-fluoro-benzamide], which IC50 is on record?
Answer: 0.2 µM

Same assay, conditions: average of results obtained; substrate Z-Valine-Valine-Arginine-AMC 10 μM, pH 5.0; read-out: CatS IC50

Question: Which IC50 does the source give for CS(=O)(=O)N1CCc2c(c(-c3ccc(Cl)c(CNC(=O)c4ccccc4)c3)nn2CC(O)CN2CCCC2)C1 (stereo not drawn) [Example 69, N-{2-Chloro-5-[1-(2-hydroxy-3-pyrrolidin-1-yl-propyl)-5-methanesulfonyl-4,5,6,7-tetrahydro-1H-pyrazolo[4,3-c]pyridin-3-yl]-benzyl}-benzamide] here?
Answer: 0.5 µM

Question: For CS(=O)(=O)N1CCc2c(c(-c3ccc(Cl)c(COC(=O)c4ccccc4)c3)nn2CCCN2CCCC2)C1 [Example 70, Benzoic acid 2-chloro-5-[5-methanesulfonyl-1-(3-pyrrolidin-1-yl-propyl)-4,5,6,7-tetrahydro-1H-pyrazolo[4,3-c]pyridin-3-yl]-benzyl ester], which IC50 is on record?
Answer: 1.85 µM

Question: How did the IC50 turn out when CS(=O)(=O)N1CCc2c(c(-c3ccc(Cl)c(COCc4ccccc4)c3)nn2CCCN2CCCC2)C1 [Example 71, 3-(3-Benzyloxymethyl-4-chloro-phenyl)-5-methanesulfonyl-1-(3-pyrrolidin-1-yl-propyl)-4,5,6,7-tetrahydro-1H-pyrazolo[4,3-c]pyridine] was run?
Answer: 1.95 µM

Question: CS(=O)(=O)N1CCc2c(c(-c3ccc(Cl)c(CNC(=O)c4ccc(F)cc4)c3)nn2CC(O)CN2CCCC(O)C2)C1 (stereo not drawn) [Example 74, N-(2-Chloro-5-{1-[2-hydroxy-3-(3-hydroxy-piperidin-1-yl)-propyl]-5-methanesulfonyl-4,5,6,7-tetrahydro-1H-pyrazolo[4,3-c]pyridin-3-yl}-benzyl)-4-fluoro-benzamide] was tested. Which IC50 did it give?
Answer: 0.3 µM

Question: For COC1CCN(CC(O)Cn2nc(-c3ccc(Cl)c(CNC(=O)c4ccc(F)cc4)c3)c3c2CCN(S(C)(=O)=O)C3)CC1 (stereo not drawn) [Example 75, N-(2-Chloro-5-{1-[2-hydroxy-3-(4-methoxy-piperidin-1-yl)-propyl]-5-methanesulfonyl-4,5,6,7-tetrahydro-1H-pyrazolo[4,3-c]pyridin-3-yl}-benzyl)-4-fluoro-benzamide], which IC50 is on record?
Answer: 0.14 µM

Question: How did the IC50 turn out when CNC(=O)NC1CCN(CC(O)Cn2nc(-c3ccc(Cl)c(CNC(=O)c4ccc(F)cc4)c3)c3c2CCN(S(C)(=O)=O)C3)CC1 (stereo not drawn) [Example 77, N-[2-Chloro-5-(1-{2-hydroxy-3-[4-(3-methyl-ureido)-piperidin-1-yl]-propyl}-5-methanesulfonyl-4,5,6,7-tetrahydro-1H-pyrazolo[4,3-c]pyridin-3-yl)-benzyl]-4-fluoro-benzamide] was run?
Answer: 0.03 µM

Question: Which IC50 does the source give for CC(C)(C)OC(=O)NC1CCN(CC(O)Cn2nc(-c3ccc(Cl)c(CNC(=O)c4ccc(F)cc4)c3)c3c2CCN(S(C)(=O)=O)C3)CC1 (stereo not drawn) [Example 78, {1-[3-(3-{4-Chloro-3-[(4-fluoro-benzoylamino)-methyl]-phenyl}-5-methanesulfonyl-4,5,6,7-tetrahydro-pyrazolo[4,3-c]pyridin-1-yl)-2-hydroxy-propyl]-piperidin-4-yl}-carbamic acid tert-butyl ester] here?
Answer: 0.03 µM

Question: Which IC50 does the source give for CC(=O)NC1CCN(CC(Cn2nc(-c3ccc(Cl)c(CNC(=O)c4ccc(F)cc4)c3)c3c2CCN(S(C)(=O)=O)C3)OC(C)=O)CC1 (stereo not drawn) [Example 80, Acetic acid 1-(4-acetylamino-piperidin-1-ylmethyl)-2-(3-{4-chloro-3-[(4-fluoro-benzoylamino)-methyl]-phenyl}-5-methanesulfonyl-4,5,6,7-tetrahydro-pyrazolo[4,3-c]pyridin-1-yl)-ethyl ester] here?
Answer: 0.1 µM

Question: CS(=O)(=O)N1CCc2c(c(-c3ccc(Cl)c(CNC(=O)c4ccc(F)cc4)c3)nn2CC(O)CN2CCCC(C(N)=O)C2)C1 (stereo not drawn) [Example 81, 1-[3-(3-{4-Chloro-3-[(4-fluoro-benzoylamino)-methyl]-phenyl}-5-methanesulfonyl-4,5,6,7-tetrahydro-pyrazolo[4,3-c]pyridin-1-yl)-2-hydroxy-propyl]-piperidine-3-carboxylic acid amide] was tested. Which IC50 did it give?
Answer: 0.17 µM

Question: Which IC50 does the source give for CS(=O)(=O)N1CCc2c(c(-c3ccc(Cl)c(CNC(=O)c4ccc(F)cc4)c3)nn2CC(O)CN2CCC(F)CC2)C1 (stereo not drawn) [Example 82, N-(2-Chloro-5-{1-[3-(4-fluoro-piperidin-1-yl)-2-hydroxy-propyl]-5-methanesulfonyl-4,5,6,7-tetrahydro-1H-pyrazolo[4,3-c]pyridin-3-yl}-benzyl)-4-fluoro-benzamide] here?
Answer: 0.19 µM

Question: For CS(=O)(=O)N1CCc2c(c(-c3ccc(Cl)c(CNC(=O)c4ccc(F)cc4)c3)nn2CC(O)CN2CCC(N)CC2)C1 (stereo not drawn) [Example 83, N-(5-{1-[3-(4-Amino-piperidin-1-yl)-2-hydroxy-propyl]-5-methanesulfonyl-4,5,6,7-tetrahydro-1H-pyrazolo[4,3-c]pyridin-3-yl}-2-chloro-benzyl)-4-fluoro-benzamide], which IC50 is on record?
Answer: 0.27 µM

Question: Which IC50 does the source give for CS(=O)(=O)N1CCc2c(c(-c3ccc(Cl)c(CNC(=O)c4ccc(F)cc4)c3)nn2CC(O)CN2CCC(F)(F)C2)C1 (stereo not drawn) [Example 84, N-(2-Chloro-5-{1-[3-(3,3-difluoro-pyrrolidin-1-yl)-2-hydroxy-propyl]-5-methanesulfonyl-4,5,6,7-tetrahydro-1H-pyrazolo[4,3-c]pyridin-3-yl}-benzyl)-4-fluoro-benzamide] here?
Answer: 0.18 µM

Question: With CN(C)C1CCN(CC(O)Cn2nc(-c3ccc(Cl)c(CNC(=O)c4ccc(F)cc4)c3)c3c2CCN(S(C)(=O)=O)C3)CC1 (stereo not drawn) [Example 85, N-(2-Chloro-5-{1-[3-(4-dimethylamino-piperidin-1-yl)-2-hydroxy-propyl]-5-methanesulfonyl-4,5,6,7-tetrahydro-1H-pyrazolo[4,3-c]pyridin-3-yl}-benzyl)-4-fluoro-benzamide] as the compound, how does the IC50 read?
Answer: 0.45 µM

Question: CS(=O)(=O)N1CCc2c(c(-c3ccc(Cl)c(CNC(=O)c4ccc(Cl)cc4)c3)nn2CCCN2CCCC2)C1 [Example 86, 4-Chloro-N-{2-chloro-5-[5-methanesulfonyl-1-(3-pyrrolidin-1-yl-propyl)-4,5,6,7-tetrahydro-1H-pyrazolo[4,3-c]pyridin-3-yl]-benzyl}-benzamide] was tested. Which IC50 did it give?
Answer: 0.96 µM

Question: With CS(=O)(=O)N1CCc2c(c(-c3ccc(Cl)c(CNC(=O)c4ccc(Cl)c(Cl)c4)c3)nn2CCCN2CCCC2)C1 [Example 87, 3,4-Dichloro-N-{2-chloro-5-[5-methanesulfonyl-1-(3-pyrrolidin-1-yl-propyl)-4,5,6,7-tetrahydro-1H-pyrazolo[4,3-c]pyridin-3-yl]-benzyl}-benzamide] as the compound, how does the IC50 read?
Answer: 1.02 µM

Question: With Cc1ccc(C(=O)NCc2cc(-c3nn(CCCN4CCCC4)c4c3CN(S(C)(=O)=O)CC4)ccc2Cl)cc1 [Example 88, N-{2-Chloro-5-[5-methanesulfonyl-1-(3-pyrrolidin-1-yl-propyl)-4,5,6,7-tetrahydro-1H-pyrazolo[4,3-c]pyridin-3-yl]-benzyl}-4-methyl-benzamide] as the compound, how does the IC50 read?
Answer: 0.74 µM

Question: For CS(=O)(=O)N1CCc2c(c(-c3ccc(C(F)(F)F)c(CNC(=O)c4ccc(F)cc4)c3)nn2CC(O)CN2CCC(CO)CC2)C1 (stereo not drawn) [Example 89, 4-Fluoro-N-(5-{1-[2-hydroxy-3-(4-hydroxymethyl-piperidin-1-yl)-propyl]-5-methanesulfonyl-4,5,6,7-tetrahydro-1H-pyrazolo[4,3-c]pyridin-3-yl}-2-trifluoromethyl-benzyl)-benzamide], which IC50 is on record?
Answer: 0.09 µM

Question: Which IC50 does the source give for CS(=O)(=O)N1CCc2c(c(-c3ccc(C(F)(F)F)c(CNC(=O)c4ccc(F)cc4)c3)nn2CC(O)CN2CCC(C(=O)O)CC2)C1 (stereo not drawn) [Example 90, 1-[3-(3-{3-[(4-Fluoro-benzoylamino)-methyl]-4-trifluoromethyl-phenyl}-5-methanesulfonyl-4,5,6,7-tetrahydro-pyrazolo[4,3-c]pyridin-1-yl)-2-hydroxy-propyl]-piperidine-4-carboxylic acid] here?
Answer: 0.15 µM

Question: With CS(=O)(=O)N1CCc2c(c(-c3ccc(C(F)(F)F)c(CNC(=O)c4ccc(F)cc4)c3)nn2CC(O)CN2CCC(CCO)CC2)C1 (stereo not drawn) [Example 91, 4-Fluoro-N-[5-(1-{2-hydroxy-3-[4-(2-hydroxy-ethyl)-piperidin-1-yl]-propyl}-5-methanesulfonyl-4,5,6,7-tetrahydro-1H-pyrazolo[4,3-c]pyridin-3-yl)-2-trifluoromethyl-benzyl]-benzamide] as the compound, how does the IC50 read?
Answer: 0.16 µM

Question: For CS(=O)(=O)N1CCc2c(c(-c3ccc(C(F)(F)F)c(CNC(=O)c4ccc(F)cc4)c3)nn2CC(O)CN2CCCC(O)C2)C1 (stereo not drawn) [Example 92, 4-Fluoro-N-(5-{1-[2-hydroxy-3-(3-hydroxy-piperidin-1-yl)-propyl]-5-methanesulfonyl-4,5,6,7-tetrahydro-1H-pyrazolo[4,3-c]pyridin-3-yl}-2-trifluoromethyl-benzyl)-benzamide], which IC50 is on record?
Answer: 0.17 µM

Question: Which IC50 does the source give for CC(=O)NC1CCN(CC(O)Cn2nc(-c3ccc(C(F)(F)F)c(CNC(=O)c4ccc(F)cc4)c3)c3c2CCN(S(C)(=O)=O)C3)C1 (stereo not drawn) [Example 93, N-(5-{1-[3-(3-Acetylamino-pyrrolidin-1-yl)-2-hydroxy-propyl]-5-methanesulfonyl-4,5,6,7-tetrahydro-1H-pyrazolo[4,3-c]pyridin-3-yl}-2-trifluoromethyl-benzyl)-4-fluoro-benzamide] here?
Answer: 0.17 µM

Question: For CS(=O)(=O)N1CCc2c(c(-c3ccc(C(F)(F)F)c(CNC(=O)c4ccc(F)cc4)c3)nn2CC(O)CN2CC[C@H](CO)C2)C1 (stereo partly drawn) [Example 94, (S)-4-Fluoro-N-(5-{1-[2-hydroxy-3-(3-hydroxymethyl-pyrrolidin-1-yl)-propyl]-5-methanesulfonyl-4,5,6,7-tetrahydro-1H-pyrazolo[4,3-c]pyridin-3-yl}-2-trifluoromethyl-benzyl)-benzamide], which IC50 is on record?
Answer: 0.18 µM

Question: With CS(=O)(=O)N1CCc2c(c(-c3ccc(C(F)(F)F)c(CNC(=O)c4ccc(F)cc4)c3)nn2CC(O)CN2CC[C@@H](CO)C2)C1 (stereo partly drawn) [Example 95, (R)-4-Fluoro-N-(5-{1-[2-hydroxy-3-(3-hydroxymethyl-pyrrolidin-1-yl)-propyl]-5-methanesulfonyl-4,5,6,7-tetrahydro-1H-pyrazolo[4,3-c]pyridin-3-yl}-2-trifluoromethyl-benzyl)-benzamide] as the compound, how does the IC50 read?
Answer: 0.23 µM
